# Measured values: patent US20230117034A1, “PYRAZOLOTRIAZINES” (Bayer Aktiengesellschaft, priority 2019, published 2023)
# Tests used:
# CDK9/CycT1 = target: T1, CDK9/CycT1 (Homo sapiens, UniProt P50750); test: CDK9/CycT1 high ATP kinase assay (TR-FRET, 2 mM ATP); format: biochemical; settings: 2 mM ATP (high ATP); median; read-out: CDK9/CyclinT1, 2 mM ATP (high ATP), IC50 (median)
# T1 construct: Recombinant full-length His-tagged human CDK9 and CycT1; purchased Life Technologies PV4131; host or cells: insect cells
# T1 sequence (P50750 whole entry): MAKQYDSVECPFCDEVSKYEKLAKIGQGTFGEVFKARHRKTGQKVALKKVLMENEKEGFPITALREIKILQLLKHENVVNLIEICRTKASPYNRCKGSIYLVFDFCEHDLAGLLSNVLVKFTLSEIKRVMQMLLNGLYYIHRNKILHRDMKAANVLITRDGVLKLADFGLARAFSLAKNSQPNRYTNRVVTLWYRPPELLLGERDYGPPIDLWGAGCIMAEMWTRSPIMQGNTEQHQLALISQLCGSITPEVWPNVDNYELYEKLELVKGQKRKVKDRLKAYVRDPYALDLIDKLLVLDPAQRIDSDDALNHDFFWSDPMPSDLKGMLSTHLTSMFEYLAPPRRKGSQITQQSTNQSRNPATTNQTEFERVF
# T1 sequence (O60563 whole entry partner): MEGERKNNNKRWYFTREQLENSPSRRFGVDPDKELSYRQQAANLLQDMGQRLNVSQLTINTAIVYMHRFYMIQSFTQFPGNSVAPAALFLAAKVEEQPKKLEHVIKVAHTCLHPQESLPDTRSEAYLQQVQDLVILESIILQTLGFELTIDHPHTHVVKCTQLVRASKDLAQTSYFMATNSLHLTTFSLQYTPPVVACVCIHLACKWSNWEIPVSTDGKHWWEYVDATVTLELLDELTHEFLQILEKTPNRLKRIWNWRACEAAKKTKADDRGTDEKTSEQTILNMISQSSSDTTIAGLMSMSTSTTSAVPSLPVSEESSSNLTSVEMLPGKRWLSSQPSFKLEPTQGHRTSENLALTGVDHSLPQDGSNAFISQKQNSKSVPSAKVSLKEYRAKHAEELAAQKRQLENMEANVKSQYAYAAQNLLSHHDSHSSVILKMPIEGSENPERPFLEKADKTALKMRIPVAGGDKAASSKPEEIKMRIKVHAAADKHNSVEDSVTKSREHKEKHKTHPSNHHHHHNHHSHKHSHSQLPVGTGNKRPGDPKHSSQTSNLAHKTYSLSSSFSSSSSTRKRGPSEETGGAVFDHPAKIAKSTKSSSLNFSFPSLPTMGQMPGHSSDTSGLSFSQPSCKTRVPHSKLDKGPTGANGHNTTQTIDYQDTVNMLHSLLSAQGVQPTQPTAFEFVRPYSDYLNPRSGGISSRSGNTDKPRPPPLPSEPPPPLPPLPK
# Outline: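 Full-length His-tagged human CDK9/CycT1 (insect cell, ~0.5 μg/mL) preincubated 15 min at 22 °C with compound in Tris pH 8.0, MgCl2, DTT buffer before reaction with biotinylated peptide substrate at high ATP (2 mM).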
# [1] = test system: BRCA1 mRNA expression in MDA-MB-231 cells; test: qRT-PCR assay: BRCA1 mRNA expression in MDA-MB-231; format: cell-based, human; settings: Homo sapiens, MDA-MB-231, Inhibition of BRCA1 mRNA expression in MDA-MB-231 cells; median; read-out: RTqPCR-MDA-MB-231, IC50, BRCA1 (median)
# Outline: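 GAPDH-normalised RT-qPCR measures the transcript after 24 h continuous compound treatment of cells seeded at 200,000/well one day earlier.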
Structure (SMILES),IC50 (CDK9/CycT1) [µM],IC50 [1] [µM]
"c1ccc2[nH]c(CNc3nc(N4C[C@@H]5C[C@H]4CO5)nc4c(C5CC5)cnn34)nc2c1 [Example 254, N-[(1H-benzimidazol-2-yl)methyl]-8-cyclopropyl-2-[(1S,4S)-2-oxa-5-azabicyclo[2.2.1]heptan-5-yl]pyrazolo[1,5-a][1,3,5]triazin-4-amine]",> 20,0.0605
"CN1CCN(c2nc(NCc3nc4cc(F)c(Cl)cc4[nH]3)n3ncc(C4CC4)c3n2)CC1 [Example 309, N-[(6-chloro-5-fluoro-1H-benzimidazol-2-yl)methyl]-8-cyclopropyl-2-(4-methylpiperazin-1-yl)pyrazolo[1,5-a][1,3,5]triazin-4-amine]",> 20,0.00583
"Fc1ccc2[nH]c(CNc3nc(N4C[C@H]5CC[C@@H](C4)N5)nc4c(C5CC5)cnn34)nc2c1F [Example 294, 8-cyclopropyl-2-[(1R,5S)-3,8-diazabicyclo[3.2.1]octan-3-yl]-N-[(4,5-difluoro-1H-benzimidazol-2-yl)methyl]pyrazolo[1,5-a][1,3,5]triazin-4-amine]",15.3,0.00116
"Fc1ccc2[nH]c(CNc3nc(N4CC5CCC(C4)N5)nc4c(C(F)(F)F)cnn34)nc2c1F [Example 310, 2-(3,8-diazabicyclo[3.2.1]octan-3-yl)-N-[(4,5-difluoro-1H-benzimidazol-2-yl)methyl]-8-(trifluoromethyl)pyrazolo[1,5-a][1,3,5]triazin-4-amine]",8.49,0.0351
"N[C@@H]1CN(c2nc(NCc3nc4ccccc4[nH]3)n3ncc(Br)c3n2)CC12CC2 [Example 251, 2-[(7S)-7-amino-5-azaspiro[2.4]heptan-5-yl]-N-[(1H-benzimidazol-2-yl)methyl]-8-bromopyrazolo[1,5-a][1,3,5]triazin-4-amine]",> 20,0.00149
"CC1CN(C)CCN1c1nc(NCc2nc3ccccc3[nH]2)n2ncc(Br)c2n1 (single isomer, unassigned; enantiomer 2) [Example 261, N-(1H-benzimidazol-2-ylmethyl)-8-bromo-2-[(2R or S)-2,4-dimethylpiperazin-1-yl]pyrazolo[1,5-a][1,3,5]triazin-4-amine (Enantiomer 2)]",> 20,
"Fc1ccc2[nH]c(CNc3nc(N4CCOCC4)nc4c(C(F)(F)F)cnn34)nc2c1 [Example 273, N-[(5-fluoro-1H-benzimidazol-2-yl)methyl]-2-(morpholin-4-yl)-8-(trifluoromethyl)pyrazolo[1,5-a][1,3,5]triazin-4-amine]",> 20,0.00195
"FC(F)(F)c1cnn2c(NCc3nc4cc(Cl)ccc4[nH]3)nc(N3CCOCC3)nc12 [Example 275, N-[(5-chloro-1H-benzimidazol-2-yl)methyl]-2-(morpholin-4-yl)-8-(trifluoromethyl)pyrazolo[1,5-a][1,3,5]triazin-4-amine]",> 20,0.00201
"N[C@@H]1CCN(c2nc(NCc3nc4ccccc4[nH]3)n3ncc(Br)c3n2)C1 [Example 250, 2-[(3R)-3-aminopyrrolidin-1-yl]-N-[(1H-benzimidazol-2-yl)methyl]-8-bromopyrazolo[1,5-a][1,3,5]triazin-4-amine]",> 20,0.0105
"CC1(O)CCN(c2nc(NCc3nc4ccccc4[nH]3)n3ncc(Br)c3n2)C1 (single isomer, unassigned) [Example 282, (3R or S)-1-(4-{[(1H-benzimidazol-2-yl)methyl]amino}-8-bromopyrazolo[1,5-a][1,3,5]triazin-2-yl)-3-methylpyrrolidin-3-ol]",> 20,
"CN(CC(C)(C)O)c1nc(NCc2nc3c(F)cccc3[nH]2)n2ncc(C3CC3)c2n1 [Example 295, 1-[(8-cyclopropyl-4-{[(4-fluoro-1H-benzimidazol-2-yl)methyl]amino}pyrazolo[1,5-a][1,3,5]triazin-2-yl)(methyl)amino]-2-methylpropan-2-ol]",9.27,0.00481
"Clc1cc2nc(CNc3nc(N4CCOCC4)nc4c(C5CC5)cnn34)[nH]c2cc1Cl [Example 301, 8-cyclopropyl-N-[(5,6-dichloro-1H-benzimidazol-2-yl)methyl]-2-(morpholin-4-yl)pyrazolo[1,5-a][1,3,5]triazin-4-amine]",> 20,0.00673
"Cc1cc2nc(CNc3nc(N4CCN(C)CC4)nc4c(C5CC5)cnn34)[nH]c2cc1C [Example 312, 8-cyclopropyl-N-[(5,6-dimethyl-1H-benzimidazol-2-yl)methyl]-2-(4-methylpiperazin-1-yl)pyrazolo[1,5-a][1,3,5]triazin-4-amine]",> 20,0.00204
"Brc1cnn2c(NCc3nc4ccccc4[nH]3)nc(N3C[C@@H]4CN[C@@H]4C3)nc12.O=C(O)C(F)(F)F [Example 267, trifluoroacetic acid-N-[(1H-benzimidazol-2-yl)methyl]-8-bromo-2-[(1S,5S)-3,6-diazabicyclo[3.2.0]heptan-3-yl]pyrazolo[1,5-a][1,3,5]triazin-4-amine (1/1)]",> 20,
"Cc1ccnc2[nH]c(CNc3nc(N4CCOCC4)nc4c(Br)cnn34)nc12 [Example 20, 8-bromo-N-[(7-methyl-3H-imidazo[4,5-b]pyridin-2-yl)methyl]-2-(morpholin-4-yl)pyrazolo[1,5-a][1,3,5]triazin-4-amine]",9.22,0.00681
"FC(F)(F)Cc1cnn2c(NCc3nc4cc(Cl)c(Cl)cc4[nH]3)nc(N3CCOCC3)nc12 [Example 302, N-[(5,6-dichloro-1H-benzimidazol-2-yl)methyl]-2-(morpholin-4-yl)-8-(2,2,2-trifluoroethyl)pyrazolo[1,5-a][1,3,5]triazin-4-amine]",> 20,0.00906
"CN1CCN(c2nc(NCc3nc4ccccc4[nH]3)n3ncc(Br)c3n2)C(CO)C1 (single isomer, unassigned) [Example 280, [(2R or S)-1-(4-{[(1H-benzimidazol-2-yl)methyl]amino}-8-bromopyrazolo[1,5-a][1,3,5]triazin-2-yl)-4-methylpiperazin-2-yl]methanol]",> 20,
"FC1(F)CC1c1cnn2c(NCc3nc4ccccc4[nH]3)nc(N3CCOCC3)nc12 (stereo not drawn) [Example 279, N-[(1H-benzimidazol-2-yl)methyl]-8-(2,2-difluorocyclopropyl)-2-(morpholin-4-yl)pyrazolo[1,5-a][1,3,5]triazin-4-amine]",> 20,0.012
"CC(C)CNc1nc(NCc2nc3ccccc3[nH]2)n2ncc(Br)c2n1 [Example 285, N^4-[(1H-benzimidazol-2-yl)methyl]-8-bromo-N^2-(2-methylpropyl)pyrazolo[1,5-a][1,3,5]triazine-2,4-diamine]",> 20,
"C[C@@]1(O)CCN(c2nc(NCc3nc4ccccc4[nH]3)n3ncc(Br)c3n2)C1 (single isomer, unassigned) [Example 281, (3R or S)-1-(4-{[(1H-benzimidazol-2-yl)methyl]amino}-8-bromopyrazolo[1,5-a][1,3,5]triazin-2-yl)-3-methylpyrrolidin-3-ol]",> 20,
"Fc1ccc2[nH]c(CNc3nc(N4CCOCC4)nc4c(C5CCCC5)cnn34)nc2c1F [Example 262, 8-cyclopentyl-N-[(4,5-difluoro-1H-benzimidazol-2-yl)methyl]-2-(morpholin-4-yl)pyrazolo[1,5-a][1,3,5]triazin-4-amine]",> 20,
"Fc1ccc2[nH]c(CNc3nc(N4CCOCC4)nc4c(C5CCOCC5)cnn34)nc2c1F [Example 276, N-[(4,5-difluoro-1H-benzimidazol-2-yl)methyl]-2-(morpholin-4-yl)-8-(oxan-4-yl)pyrazolo[1,5-a][1,3,5]triazin-4-amine]",> 20,
"FC(F)(F)Cc1cnn2c(NCc3nc4ccccc4[nH]3)nc(N3CCOCC3)nc12.O=CO [Example 265, formic acid-N-[(1H-benzimidazol-2-yl)methyl]-2-(morpholin-4-yl)-8-(2,2,2-trifluoroethyl)pyrazolo[1,5-a][1,3,5]triazin-4-amine (1/1)]",> 20,
"OCC1CN(c2nc(NCc3nc4ccccc4[nH]3)n3ncc(Br)c3n2)C1 [Example 304, [1-(4-{[(1H-benzimidazol-2-yl)methyl]amino}-8-bromopyrazolo[1,5-a][1,3,5]triazin-2-yl)azetidin-3-yl]methanol]",> 20,
"c1ccc2[nH]c(CNc3nc(N4CCOCC4)nc4c(C5CCCC5)cnn34)nc2c1 [Example 244, N-[(1H-benzimidazol-2-yl)methyl]-8-cyclopentyl-2-(morpholin-4-yl)pyrazolo[1,5-a][1,3,5]triazin-4-amine]",> 20,
"Brc1cnn2c(NCc3nc4cccnc4[nH]3)nc(N3CCNCC3)nc12.O=CO [Example 19, 8-bromo-N-[(3H-imidazo[4,5-b]pyridin-2-yl)methyl]-2-(piperazin-1-yl)pyrazolo[1,5-a][1,3,5]triazin-4-amine formic acid salt]",> 20,
"NC1(C(F)(F)F)CCN(c2nc(NCc3nc4ccccc4[nH]3)n3ncc(Br)c3n2)C1 (stereo not drawn) [Example 266, 2-[3-amino-3-(trifluoromethyl)pyrrolidin-1-yl]-N-(1H-benzimidazol-2-ylmethyl)-8-bromo-pyrazolo[1,5-a][1,3,5]triazin-4-amine]",> 20,
"Brc1cnn2c(NCc3nc4ccccc4[nH]3)nc(N3C[C@H]4CN[C@H]4C3)nc12.O=C(O)C(F)(F)F [Example 255, trifluoroacetic acid-N-[(1H-benzimidazol-2-yl)methyl]-8-bromo-2-[(1R,5R)-3,6-diazabicyclo[3.2.0]heptan-3-yl]pyrazolo[1,5-a][1,3,5]triazin-4-amine (1/1)]",> 20,
